Data taken from PubChem BioAssay (NCI).
Several values for one entry are separate records, joined by “and”; a condition that tells them apart may be missing. Equal values may be shown once.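 Protocol summary: plate cells (96-well), add compound at 5 concentrations, incubate 48 h, interpolate endpoints linearly. At the GI50, growth is halved. Definition used: TGI = concentration required for complete inhibition of growth.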 Where a SMILES comes first, the peptide text is derived from it. [ ]: non-standard residue; d: D form. The star is where a group is joined. ξ: configuration not given here. ξF = NC(Cc1ccccc1)C(=O)O; Cbz = O=C(OCc1ccccc1)*; Aib = CC(C)(N)C(=O)O

Experiments:
Test in all cases: inhibition of tumour cell growth, NCI panel, 48 h
[1] = test system: SR leukemia
[2] = test system: CCRF-CEM leukemia
[3] = test system: HCT-116 colon
[4] = test system: HL-60(TB) leukemia
[5] = test system: NCI-H460 lung
[6] = test system: MDA-N
[7] = test system: NCI/ADR-RES ovarian
[8] = test system: HCT-15 colon
[9] = test system: SF-268 CNS
[10] = test system: HS 578T breast

| Compound | TGI [1] | TGI [2] | TGI [3] | TGI [4] | TGI [5] | TGI [6] | TGI [7] | TGI [8] | TGI [9] | TGI [10] | GI50 [2] | GI50 [3] | GI50 [9] | GI50 [5] | GI50 [7] |
| --- | --- | --- | --- | --- | --- | --- | --- | --- | --- | --- | --- | --- | --- | --- | --- |
| CC(=O)Nc1cccc(N2C(=O)/C(=C\c3cccc(Oc4ccccc4)c3)S(=O)(=O)C2c2ccccc2)c1 (stereo not given) | 58.3 µM | > 100 µM | > 100 µM | 50.4 µM | > 100 µM | > 100 µM | > 100 µM | > 100 µM |  |  |  |  |  |  |  |
| COc1ccc(NC(C)=O)cc1N1C(=O)/C(=C\c2ccccc2)SC1c1cc(OC)c(OC)c(OC)c1 (stereo not given) | > 100 µM | > 100 µM | 29.5 µM | 81 µM | 44.5 µM | > 100 µM | 41 µM | 58.8 µM | 43.9 µM |  |  |  |  |  |  |
| CN(CC(=O)O)Cc1c(O)c(Cl)cc(Cl)c1Cl | 90.9 µM | 50.4 µM | > 100 µM | 44.6 µM | 75.4 µM | > 100 µM | > 100 µM | > 100 µM | > 100 µM | > 100 µM |  |  |  |  |  |
| NC(=O)C1CCCN1C(=O)C(N)Cc1ccccc1 (stereo not drawn) (H-Phe-Pro-NH2; configuration not given here) | > 100 µM | > 100 µM | > 100 µM | > 100 µM | > 100 µM | > 100 µM | > 100 µM | > 100 µM | > 100 µM |  |  |  |  |  |  |
| N#CC1=C2SCCN2C(=O)C(C#N)C12CCCCC2 (stereo not given) | > 100 µM | > 100 µM | > 100 µM |  | > 100 µM | > 100 µM | > 100 µM | > 100 µM | > 100 µM |  |  |  |  |  |  |
| Cc1cc2c(c(O)c1-c1c(C)cc(O)c3c1C(=O)C=CC3=O)C(=O)C=CC2=O | 0.265 µM |  |  |  | 44.5 µM | 4.03 µM | 13.8 µM |  |  | 32.9 µM |  |  |  |  |  |
| COc1cc(/C=N/c2nc3cc4sc(/N=C/c5cc(OC)c(OC)c(OC)c5)nc4cc3s2)cc(OC)c1OC | > 100 µM |  | > 100 µM | > 100 µM | > 100 µM | 81.7 µM | > 100 µM | > 100 µM | > 100 µM | > 100 µM |  |  |  |  |  |
| CCCCCCCCCCCCCC1=C(O)C(=O)C(CC2=C(O)C(=O)C(CCCCCCCCCCCCC)=C(O)C2=O)=C(O)C1=O | > 100 µM | > 100 µM | > 100 µM | > 100 µM |  | > 100 µM |  |  | > 100 µM | > 100 µM |  |  |  |  |  |
| CCCCN1C(=O)c2c(Br)sc(Br)c2C1=O | 85.6 µM | > 100 µM | 65.6 µM |  | > 100 µM | > 100 µM | 88.2 µM | > 100 µM | > 100 µM |  |  |  |  |  |  |
| CCN(CC)CC[n+]1ccc2c(C)c3[nH]c4ccc(O)cc4c3c(C)c2c1 | 1.74 µM | 33 µM and 23.1 µM | 26.7 µM and 30.8 µM | 33.2 µM and 33.1 µM | 13.3 µM and 3.45 µM | 25.7 µM | 79.6 µM and 102 µM | 143 µM | 7.3 µM and 7.53 µM | 15.8 µM | 0.808 µM | 4.36 µM | 0.685 µM | 0.147 µM | 21.7 µM |
| CCOC(=O)CNC(=O)C(Cc1ccccc1)NC(=O)C(C)(C)NC(=O)OCc1ccccc1 (stereo not given) (Cbz-[Aib]-[ξF]-Gly-OEt) | > 100 µM | > 100 µM | > 100 µM | > 100 µM |  | > 100 µM | > 100 µM | > 100 µM | > 100 µM |  |  |  |  |  |  |
| CCOC(=O)Cn1c2ccc(Br)cc2c2nc3ccccc3nc21 | > 100 µM | > 100 µM | > 100 µM |  |  | > 100 µM | > 100 µM |  | > 100 µM | > 100 µM |  |  |  |  |  |
| CC(C)CCCC(C)[C@H]1CC[C@H]2n3c(nc4ccccc43)CCC[C@]12C (stereo not given in full) | 37.2 µM | 49 µM | 53.4 µM | 32.3 µM | 32 µM | 32.4 µM | 33.8 µM | 33.4 µM | 43 µM | 63.8 µM |  |  |  |  |  |
| CON(C)C(=O)[C@H]1C[C@@]1(C)CO | > 100 µM | > 100 µM | > 100 µM |  | > 100 µM | > 100 µM | > 100 µM | > 100 µM | > 100 µM | > 100 µM |  |  |  |  |  |
| CC(C)(C)OC(=O)N1C(OP(=O)(Oc2ccccc2)Oc2ccccc2)=CSc2ccccc21 | > 100 µM |  | > 100 µM | 43.1 µM | > 100 µM | > 100 µM | > 100 µM | > 100 µM | > 100 µM | > 100 µM |  |  |  |  |  |
| O=C(Oc1c(Cl)cc(C2(c3cc(Cl)c(OC(=O)c4ccccc4)c(Cl)c3)CCCCC2)cc1Cl)c1ccccc1 |  | 30.1 µM | 25.9 µM | 23.5 µM | 26.1 µM | 25.6 µM | 27.1 µM | 24.6 µM | 27.2 µM | 32.4 µM |  |  |  |  |  |
| OC[C@H]1NC[C@@H](O)[C@@H](O)[C@H]1O | > 100 µM | > 100 µM | > 100 µM |  | > 100 µM | > 100 µM | > 100 µM | > 100 µM |  | > 100 µM |  |  |  |  |  |
| CC(=O)O[C@H]1CC[C@H]2[C@@H]3CCC4=CC(=O)C=C[C@]4(O)[C@H]3CC[C@]12C | 5.1 µM | 46.5 µM | > 100 µM |  | > 100 µM | > 60.9 µM | 46.2 µM | > 100 µM |  |  |  |  |  |  |  |
